Measured values from PMC6151598, “Soluble Epoxide Hydrolase Inhibitory Activity of Components Isolated from Apios americana Medik” (Molecules : A Journal of Synthetic Chemistry and Natural …, 2017).
Several values for one entry are separate records, joined by “and”; a condition that tells them apart may be missing. Identical values can stand only once.

Assays:
androgen receptors = tested on: androgen receptors; set-up: method as in PMID 23402539, PMID 26806328; settings: cited from earlier work
[1] = biological target: T1, soluble epoxide hydrolase (sEH) (Homo sapiens, UniProt P34913); test: sEH enzyme kinetics (Lineweaver–Burk and Dixon plots); type: biochemical; settings: for Binding mode (inhibition type): Lineweaver–Burk plot
T1 construct: purchased Cayman (Ann Arbor, MI, USA) 10011669
T1 sequence (P34913 1-555): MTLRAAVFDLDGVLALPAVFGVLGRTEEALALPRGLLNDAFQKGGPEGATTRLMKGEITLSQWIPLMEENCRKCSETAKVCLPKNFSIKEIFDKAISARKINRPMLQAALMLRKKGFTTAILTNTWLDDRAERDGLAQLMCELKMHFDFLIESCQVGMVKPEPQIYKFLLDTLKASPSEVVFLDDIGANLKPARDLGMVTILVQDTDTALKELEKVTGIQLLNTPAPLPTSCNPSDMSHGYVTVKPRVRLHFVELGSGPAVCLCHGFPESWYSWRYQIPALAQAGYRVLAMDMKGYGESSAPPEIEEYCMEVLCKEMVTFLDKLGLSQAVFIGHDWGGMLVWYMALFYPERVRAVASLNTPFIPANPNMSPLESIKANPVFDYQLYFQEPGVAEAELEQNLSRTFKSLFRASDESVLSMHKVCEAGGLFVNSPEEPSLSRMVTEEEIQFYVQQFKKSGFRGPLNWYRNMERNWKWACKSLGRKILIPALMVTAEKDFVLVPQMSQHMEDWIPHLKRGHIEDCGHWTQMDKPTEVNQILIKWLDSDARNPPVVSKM

[2] = biological target: T1, soluble epoxide hydrolase (sEH); test: sEH inhibition assay (fluorometric, PHOME substrate); type: biochemical; settings: for IC50: concentrations 6.2 to 100 μM, triplicate, read-out: IC50, inhibitory activity on sEH; for Inhibitory ratio on sEH: tested at 100 μM, % of the control value
Experimental: The sEH assay was performed as described previously. Briefly, 130 µL of sEH in 25.0 mM Bis-Tris-HCl buffer (pH 7.0) and 20.0 µL of the compounds (1–0.06 mM concentration) diluted in MeOH, were added in 96-well plate, to which 50.0 µL of 20.0 µM PHOME was added in the mixture. After initiating the enzyme reaction at 37 °C, the products by hydrolysis of the substrate were monitored at excitation and emission of 330 and 465 nm for one hour. Inhibitory activity (%) = 100 − [(C40 − C0) − (S40 − S0)/(C40 − C0)] × 100 (1) where C40 and S40 were the fluorescence of the control and inhibitor, respectively, after 40 min, S0 and C0 is the fluorescence of inhibitor and control, respectively, at 0 min.

estrogen receptors = tested on: estrogen receptors; set-up: method as in PMID 23402539, PMID 26806328; settings: cited from earlier work

| SMILES | Blocking of [3H]-dihydrotestosterone binding with androgen receptors (androgen receptors) | Binding mode (inhibition type) [1] | IC50 [2] | Inhibitory ratio on sEH [2] | Binding activity with estrogen receptors (estrogen receptors) | other results |
| --- | --- | --- | --- | --- | --- | --- |
| O=c1c(-c2ccc(O)cc2O)coc2cc(O[C@@H]3O[C@H](CO)C(O)[C@H](O)C3O)cc(O)c12 (some centres unmarked) [Compound 6, 2′-hydroxygenistein-7-O-glucoside] | blocked the binding |  |  |  |  |  |
| COc1cc(O)cc2c1C(=O)C1(O)c3ccc(O)cc3OC1O2 (centres unmarked) [Compound 1, 5-methoxy-2,5,7,4′-tetrahydroxy-coumaronochromone] |  | competitive inhibitor | < 50 µM and 43.2 µM | over 50% |  | Ki ([1]; inhibitor 0, 25, 50 μM, substrate 3.1 to 25 μM, read-out: Ki (Dixon plot)): 21 µM |
| O=c1c(-c2ccc(O)cc2O)coc2cc(O[C@@H]3O[C@H](CO[C@@H]4O[C@H](CO)[C@@H](O)[C@H](O)[C@H]4O)[C@@H](O)[C@H](O)[C@H]3O)cc(O)c12 [Compound 7, 2′-hydroxygenistein-7-O-gentibioside] | blocked the binding |  |  |  |  |  |
| O=c1c(-c2ccc(O)cc2O)coc2cc(O)cc(O)c12 [2′-hydroxygenistein] |  |  |  |  | binding activities |  |
| O=c1c(-c2ccc(O)cc2)coc2cc(O)cc(O)c12 [Compound 2, genestein] |  | mixed inhibitor |  |  | binding activities |  |
| O=C(O)c1ccc(O)cc1 [Compound 8, 4-hydroxybenzoic acid] |  |  | 69.3 ± 1.9 µM | over 50% |  |  |
